# Experimental data from patent publication US20230061083A1, “KRAS G12C INHIBITOR COMPOUND AND USE THEREOF” (Evopoint Biosciences Co., Ltd., priority 2019, published 2023).
# Experiments:
# [1] = tested on: ERK phosphorylation in H358 cells; test: In-cell western blot assay for ERK phosphorylation in H358 cells; type: cell-based; settings: Homo sapiens, NCI-H358, 10000 nM to 0.051 nM, 3-fold dilution, read-out: H358 p-ERK IC50
# Procedure: In-Cell Western Blot Assay for ERK Phosphorylation in H358 Cells
# H358 cells were thawed and pre-cultured for 3 days to be in a good state (RPMI 1640+10% FBS+1% P/S). The cells were plated on to a 384-well plate, and a test compound, positive control compounds (AMG510 and isomers thereof) and a negative control were added. The compound was at concentrations from 10000 nM to 0.051 nM. 3-fold dilution was performed. The mixture was well mixed and incubated at 37° C. and 5% CO2. The cells were washed with PBS and suspended in methanol. After another washing with PBS, a blocking buffer was added. After 1 h of blocking at room temperature, a primary antibody mixture (rabbit anti pERK, mouse anti GAPDH) was added, followed by overnight incubation at 4° C. The cells were washed 3 times with PBST, and a secondary antibody mixture (goat anti rabbit 800CW and goat anti mouse 680RD) was added, followed by incubation at room temperature in the dark. The 384-well plate was reversed and centrifuged at 1000 rpm for 1 min, and read on an Odyssey CLx fluorescence imaging system for fluorescence signal values, which was corrected using DMSO and ARS1620. The specific calculation is as follows:
# Relative Signal=Signal Value(total channel 800)/Signal Value(total channel 700)
# Relative pERK=(Sample−Ave_L)/(Ave_H−Ave_L).
# The IC50 values of the compounds were calculated using a four-parameter fitting algorithm, specifically as follows:
# Y=Bottom+(Top−Bottom)/(1+10^((Log IC50−X)×HillSlope))
# [2] = Plasma protein binding (PPB), RED plate dialysis, human plasma; type: in vitro ADME; settings: 1 μM, 37° C., 5 h, read-out: PPB (% free state) H
# Procedure: (§1) Human (H), Rat (R) and Mouse (M) Plasma Protein Binding (PPB)
# (§2) A test compound and a positive control were each mixed with blank plasma to a final concentration of 1 μM. The mixture was added to a RED plate plasma sample chamber, followed by addition of a dialysis buffer in the buffer chamber. The sample was prepared in triplicate for each compound. The chambers were sealed, and the plate was incubated at 37° C. with shaking at 60 rpm for 5 h. After incubation, the samples were transferred out of the plasma chamber and the buffer chamber and treated as shown in Table 5. After centrifugation at 5594 g for 15 min, the supernatant was collected and analyzed by LC/MS/MS.
# (§3) The compound concentration in each sample was expressed in terms of the ratio between peak areas (ratio of peak area of compound to peak area of internal standard) by mass spectrometry analysis, and the plasma protein binding was calculated according to the following formulas.
# (§4) % free state=(buffer chamber peak area ratio/plasma chamber peak area ratio)×100%
# (§5) % bound state=100%−% free state
# [3] = tested on: plasma proteins; test: as above; type: in vitro ADME
# Procedure: as §1, §2, §3, §4, §5
# [4] = Plasma protein binding (PPB), RED plate dialysis, rat plasma; type: in vitro ADME; settings: 37° C., read-out: PPB (% free state) R
# Procedure: as §1, §2, §3, §4, §5
# [5] = Plasma protein binding (PPB), RED plate dialysis, mouse plasma; type: in vitro ADME; settings: 37° C., read-out: PPB (% free state) M
# Procedure: as §1, §2, §3, §4, §5
# [6] = biological target: KRAS G12C protein (GDP-KRAS-4B-G12C) (Homo sapiens, UniProt P01116, G12C); test: Assay for binding rate to KRAS G12C protein by LC-MS method; settings: 3 uM compound; for Binding rate to KRAS G12C protein (LC-MS POC, %) 3 uM/5 min: 5 min incubation at room temperature; for Binding rate to KRAS G12C protein (LC-MS POC, %) 3 uM/30 min: 30 min incubation at room temperature
# Procedure: Assay for Binding Rate to KRAS G12C Protein by LC-MS Method
# A 10 mM stock solution of a test compound in DMSO was prepared. […] An equal volume of GDP buffer (20 mM Hepes, pH 7.5, 50 mM NaCl, 0.5 mM MgCl2, 10 mM EDTA, 2 mM DTT, GDP) was added to prepare KRASG12C protein loaded with GDP.
# After incubation at room temperature for 5 min and 30 min, the reaction was terminated by addition of 5 μL of 5% formic acid. After being centrifuged at 15,000 rpm for 10 min, the mixture was subjected to LC-MS analysis and data analysis.
# The percent binding of a test compound to KRASG12C protein was calculated as: Percent binding to KRAS G12C (%)=peak height of conjugate of test compound and KRAS G12C protein/[peak height of conjugate of test compound and KRAS G12C protein+peak height of free KRAS G12C protein] x 100.
SMILES,IC50 [1] [nM],"fraction unbound at 5 h, 1 μM [2]","fraction unbound at 5 h, 1 μM [4]","fraction unbound at 5 h, 1 μM [5]",other results
C=CC(=O)N1CCN(c2nc(=O)n(-c3c(C(C)C)ncnc3C(C)C)c3c2cc(F)c(-c2c(F)ccc(F)c2O)[n+]3[O-])[C@@H](C)C1 [SZ-014062AB],207,,,,
C=CC(=O)N1CCN(c2nc(=O)n(-c3c(C(C)C)ncnc3C(C)C)c3c2cc(Cl)c(-c2ccccc2O)[n+]3[O-])[C@@H](C)C1 [SZ-014031A],11.4,,,,
C=CC(=O)N1CCN(c2nc(=O)n(-c3c(C(C)C)cccc3C(C)C)c3c2cc(Cl)c(-c2c(O)cccc2F)[n+]3[O-])[C@@H](C)C1 [SZ-014116AB],2.8,,,,
C=CC(=O)N1CCN(c2nc(=O)n(-c3c(C(C)C)ncnc3C(C)C)c3c2cc(Cl)c(-c2ccccc2F)[n+]3[O-])[C@@H](C)C1 [SZ-014108A/B],9.4,,,,
C=CC(=O)N1CCN(c2nc(=O)n(-c3c(C)ccnc3C(C)C)c3c2cc(F)c(-c2ccccc2F)[n+]3[O-])[C@@H](C)C1 [SZ-014011A/B],405,,,,"Binding rate to KRAS G12C protein (LC-MS POC, %) 3 uM/5 min [6]: 37.8%; Binding rate to KRAS G12C protein (LC-MS POC, %) 3 uM/30 min [6]: 75.5%"
C=CC(=O)N1CCN(c2nc(=O)n(-c3c(C(C)C)ncnc3C(C)C)c3c2cc(F)c(-c2cccc4ccccc24)[n+]3[O-])[C@@H](C)C1 [SZ-014013A/B],36,,,,
C=CC(=O)N1CCN(c2nc(=O)n(-c3c(C(C)C)ncnc3C(C)C)c3c2cc(F)c(-c2c(F)cccc2Cl)[n+]3[O-])[C@@H](C)C1 [SZ-014082A/B],60,,,,
C=CC(=O)N1CCN(c2nc(=O)n(-c3c(C(C)C)ncnc3C(C)C)c3c2cc(F)c(-c2ccccc2O)[n+]3[O-])[C@@H](C)C1 [SZ-014111A/B],31,,,,
C=CC(=O)N1CCN(c2nc(=O)n(-c3c(C)ccnc3C(C)C)c3c2cc(F)c(-c2ccccc2O)[n+]3[O-])[C@@H](C)C1 [SZ-014010A/B],442,,,,"Binding rate to KRAS G12C protein (LC-MS POC, %) 3 uM/5 min [6]: 47.7%; Binding rate to KRAS G12C protein (LC-MS POC, %) 3 uM/30 min [6]: 84.9%"
C=CC(=O)N1CCN(c2nc(=O)n(-c3c(C)ccnc3C(C)C)c3c2cc(F)c(-c2c(F)cccc2F)[n+]3[O-])[C@@H](C)C1 [SZ-014077A/B],191,,,,
"C=CC(=O)N1CCN(c2nc(=O)n(-c3c(C)ccnc3C(C)C)c3nc(-c4c(O)cccc4F)c(F)cc23)[C@@H](C)C1 [SZ-014004A, reference compound]",12,0.068,0.145,0.112,
[2H]c1c([2H])c([2H])c(-c2c(F)cc3c(N4CCN(C(=O)C=C)C[C@@H]4C)nc(=O)n(-c4c(C(C)C)ncnc4C(C)C)c3[n+]2[O-])c(O)c1[2H] [SZ-014051A/B],44,,,,
C=CC(=O)N1CCN(c2nc(=O)n(-c3c(C)ccnc3C(C)C)c3c2cc(F)c(-c2c(O)cccc2F)[n+]3[O-])[C@@H](C)C1 [SZ-014089A/B],143,,,,

# Further lines, with some results ahead:
IC50 [1] [nM],"fraction unbound at 5 h, 1 μM [2]","fraction unbound at 5 h, 1 μM [4]","fraction unbound at 5 h, 1 μM [5]",SMILES,other results
90,0.455,0.517,0.336,C=CC(=O)N1CCN(c2nc(=O)n(-c3c(C(C)C)ncnc3C(C)C)c3c2cc(F)c(-c2ccccc2)[n+]3[O-])[C@@H](C)C1 [SZ-014129],"molar concentration not bound to plasma proteins, times higher than reference compound SZ-014141 ([3]; versus SZ-014141): no less than 10 times"
139,0.074,0.188,0.039,C=CC(=O)N1CCN(c2nc(=O)n(-c3c(C(C)C)cccc3C(C)C)c3c2cc(F)c(-c2ccccc2)[n+]3[O-])[C@@H](C)C1 [SZ-014130],"molar concentration not bound to plasma proteins, times higher than reference compound SZ-014142 ([3]; versus SZ-014142): no less than 30 times"
170,0.04,0.127,0.008,"C=CC(=O)N1CCN(c2nc(=O)n(-c3c(C(C)C)ncnc3C(C)C)c3nc(-c4ccccc4)c(F)cc23)[C@@H](C)C1 [SZ-014141, reference compound]",
3540,0.076,0.114,0.005,"C=C(F)C(=O)N1CCN(c2nc(=O)n(-c3c(C(C)C)ncnc3C(C)C)c3nc(-c4c(F)cccc4F)c(F)cc23)[C@@H](C)C1 [SZ-014137, reference compound]",
81,0.015,0.022,0.007,"C=CC(=O)N1CCN(c2nc(=O)n(-c3c(C(C)C)cccc3C(C)C)c3nc(-c4c(F)cccc4F)c(F)cc23)[C@@H](C)C1 [SZ-014139, reference compound]",
691,,,,C=CC(=O)N1CCN(c2nc(=O)n(-c3c(CC)ncnc3CC)c3c2cc(F)c(-c2c(F)cccc2F)[n+]3[O-])[C@@H](C)C1 [SZ-014119],"Binding rate to KRAS G12C protein (LC-MS POC, %) 3 uM/5 min [6]: 20.8%; Binding rate to KRAS G12C protein (LC-MS POC, %) 3 uM/30 min [6]: 79.2%"
296,0.002,0.008,0.047,"C=CC(=O)N1CCN(c2nc(=O)n(-c3c(C(C)C)cccc3C(C)C)c3nc(-c4ccccc4)c(F)cc23)[C@@H](C)C1 [SZ-014142, reference compound]",
34,0.129,0.203,0.011,"C=CC(=O)N1CCN(c2nc(=O)n(-c3c(C(C)C)ncnc3C(C)C)c3nc(-c4c(F)cccc4F)c(F)cc23)[C@@H](C)C1 [SZ-014138, reference compound]",
41,0.587,0.616,0.377,C=CC(=O)N1CCN(c2nc(=O)n(-c3c(C(C)C)ncnc3C(C)C)c3c2cc(F)c(-c2c(F)cccc2F)[n+]3[O-])[C@@H](C)C1 [SZ-014053],"Binding rate to KRAS G12C protein (LC-MS POC, %) 3 uM/5 min [6]: 85.6%; Binding rate to KRAS G12C protein (LC-MS POC, %) 3 uM/30 min [6]: 100.0%; molar concentration not bound to plasma proteins, times higher than reference compound SZ-014138 ([3]; versus SZ-014138): no less than 4 times"
2090,,,,C=CC(=O)N1CCN(c2nc(=O)n(-c3c(C)ccnc3CC)c3c2cc(F)c(-c2c(F)cccc2F)[n+]3[O-])[C@@H](C)C1 [SZ-014131],
145,,,,C=CC(=O)N1CCN(c2nc(=O)n(-c3c(C(C)C)ncnc3C(C)C)c3c2cc(F)c(-c2cc(F)ccc2O)[n+]3[O-])[C@@H](C)C1 [SZ-014044],"Binding rate to KRAS G12C protein (LC-MS POC, %) 3 uM/5 min [6]: 84.1%; Binding rate to KRAS G12C protein (LC-MS POC, %) 3 uM/30 min [6]: 97.2%"
494,,,,C=CC(=O)N1CCN(c2nc(=O)n(-c3c(C(C)C)ncnc3C(C)C)c3c2cc(F)c(-c2cccc(F)c2O)[n+]3[O-])[C@@H](C)C1 [SZ-014043],"Binding rate to KRAS G12C protein (LC-MS POC, %) 3 uM/5 min [6]: 58.5%; Binding rate to KRAS G12C protein (LC-MS POC, %) 3 uM/30 min [6]: 90.0%"
